# Experimental data published in US20260294946A1, “METHOD TO REDUCE FEED CONVERSION RATIO IN A FARMED ANIMAL” (Inbiose N.V., priority 2023, published 2026).
# How the values were obtained:
# Type in all cases: in vivo
# [1] = Feed conversion ratio of a farm animal (general statement); conditions: administered to a farm animal
# [2] = system: Bacteroides pectinophilus; assay: Fecal microbiota of calves, shotgun metagenomics; conditions: T2 (W 9), versus placebo calves, score = −log 10(pvalue)*sign(coef)
# Description: (§1) Stools were collected directly from recta of six calves in one selected pen upon rectal inducing at day 29 (W5) and day 57 (W9). The fecal samples (approximately 1 g) were immediately snap frozen using isopropanol-dried ice bath for 1 minute before they were transferred onto dried ice for transportation to a long-term storage at −80° C.
# (§2) Total fecal DNA was extracted from 200 mg feces while total upper respiratory tract microbial DNA were extracted from 1 ml DNA shield reagent containing the nasal pharyngeal swab. ZymoBIOMICS™ DNA miniprep kit (Zymo Research) in combination with a FASTPREP® 24 device was used to extract and purify the microbial DNA as instructed by the manufacturer. Purified total DNA were eluted in 100 μl and were quickly checked for the concentration and quality using Nanodrop (Implen NANOPHOTOMETER®) before storage at −20° C.
# (§3) Total DNA were submitted to Eurofins (GATC, Germany) to perform metagenomics using their INVIEW metagenome platform. Briefly, total DNA were first fragmented, then ligated with adapter for library preparation. The sequencing was done using Illumina paired end sequencing technology (2×150 bp), guaranteed for 20 million read pairs (40 million reads). Reads were quality-checked with fastqc (bioinformatics.babraham.ac. uk/projects/fastqc/) and trimmed with Trimmomatic (Bolger et al., 2014, Bioinformatics, 30(15): p. 2114-2120; usadellab.org/cms/?page=trimmomatic). Bovine reads were removed by mapping to the cow reference database Bos_taurus_UMD_3.1.1 using BMTagger (bioconda.github.io/recipes/bmtagger/README.html). Profiling of the taxonomic composition and the functional potential of microbial communities was done using Metaphlan (Beghini et al., 2021, Elife 10: e65088; /huttenhower.sph.harvard.edu/humann/).
# (§4) Microbiome data was normalized in cpm (counts per million).
# (§5) The treatment effect of MMOs in the microbiome data was evaluated per timepoint with Maaslin2 (Mallick et al., 2021, PLoS Computational Biology 17(11): e1009442) using AST transformation and adding compartment as fixed effect. For visualization in the tables a score was calculated equal to −log 10(pvalue)*sign(coef). Spearman correlation was used to evaluate the relation between microbiome and FCR using the cor.test function in the stats package in R.
# [3] = system: Prevotella copri; assay: Fecal microbiota of calves, shotgun metagenomics; conditions: T1 (W 5), versus placebo calves, score = −log 10(pvalue)*sign(coef)
# Description: as §1, §2, §3, §4, §5
# [4] = system: Atopobium deltae; assay: Fecal microbiota of calves, shotgun metagenomics; conditions: T1 (W 5), versus placebo calves, score = −log 10(pvalue)*sign(coef)
# Description: as §1, §2, §3, §4, §5
# [5] = system: Ruminococcus bromii; assay: Fecal microbiota of calves, shotgun metagenomics; conditions: T2 (W 9), versus placebo calves, score = −log 10(pvalue)*sign(coef)
# Description: as §1, §2, §3, §4, §5
# [6] = system: Eubacterium rectale; assay: Fecal microbiota of calves, shotgun metagenomics; conditions: T1 (W 5), versus placebo calves, score = −log 10(pvalue)*sign(coef)
# Description: as §1, §2, §3, §4, §5
# [7] = system: Bacteroides coprophilus; assay: Fecal microbiota of calves, shotgun metagenomics; conditions: T2 (W 9), versus placebo calves, score = −log 10(pvalue)*sign(coef)
# Description: as §1, §2, §3, §4, §5
# [8] = Trial in piglets: body weight, growth, feed intake and feed conversion (pre-weaning, 22 days)
# Description: The in vivo experiment was carried out at the commercial pig farm “Degroote Luc” (Bissegem, Belgium).
# The experimental design had two treatments: • “Ti” serves as control, i.e., a placebo (water) was drenched during the first 4 days of life, and subsequently a commercial milk replacer as a liquid and creep feed was offered until weaning, • “T2,” a […] solution of 2′FL (it is referred to Example 1) in water was drenched during the first 4 days of life, and subsequently a commercial milk replacer supplemented with 2′FL (warm water was added to 250 g of milk powder to reach 25.000 (w/v)) and creep feed supplemented with 2′FL (10% w/w 2′FL) was offered until weaning. The composition of milk replacer and creep feed are detailed in Table 4.
# Within 6 hours after birth of all piglets within a litter, piglets were tagged, weighed and ranked according to live weight. This was d0 of the study. Then, the first drenching was given, i.e., the heaviest piglet in the pen receives Ti, the next piglet T2 and so forth, until 12 piglets of that litter were drenched. In the next litter, the order of treatment application was alternated. This practice was done in 16 litters, and drenching was repeated on d1, d2 and d3. At the d4, […] were allocated to 16 pens with 6 piglets each, in the nursery unit. Ti was applied in 8 pens, and T2 was offered in 8 remaining pens. Piglets were allocated to pens according to litter of origin (from each of the 16 litters; 6 vital, normal to heavy weight piglets, body weight ≥1.7 kg, were taken and half of the piglets were allocated to a pen from T1—those receiving T1 in the first 3 days of life, and others to a pen from T2—those receiving T2 in the first 3 days of life), and to body weight and sex. Piglets were offered the liquid milk replacer through a cup connected to a mixing-tubing system and had free access to milk at all times. Milk intake was accurately measured at pen level. From d14 on, in addition, piglets were offered a creep feed (solid feed in feeder pan). Piglets were weighed at d0, d4, d14 and d22 (day of weaning).
# Data was collected with respect to piglet performance (body weight, average daily gain (ADG), average daily feed intake and milk replacer for periods d0-4, d4-14, d14-22, d4-22, d0-22, total creep feed intake for period d14-22 and feed conversion for all periods.
# Data were analyzed using appropriate linear mixed model with treatment as fixed effect (T1 vs. T2) and litter as random effect, and body weight at d0 as co-variate if P<0.05. Piglet was used as experimental unit for growth data, whereas pen was the experimental unit for other records.
substance,measurement,setting,value
2′-fucosyllactose [2′FL],decrease of the feed conversion ratio,[1],strong decrease
same,Significant change in counts per million (cpm) of bacteria species (score),[2],1.35
same,Significant change in counts per million (cpm) of bacteria species (score),[3],−1.68
same,Significant change in counts per million (cpm) of bacteria species (score),[4],−1.44
same,Significant change in counts per million (cpm) of bacteria species (score),[5],1.65
same,Significant change in counts per million (cpm) of bacteria species (score),[6],1.35
same,Significant change in counts per million (cpm) of bacteria species (score),[7],−1.56
same,"body weight, ADG, milk intake, and creep feed intake versus placebo",[8]; 22 days of pre-weaning phase,no significant differences
same,FCR versus placebo,"[8]; 22 days of pre-weaning phase, trend",there is a trend that the FCR is reduced
same,Body weight,"[8]; d 0, P=0.839 vs placebo",1536 g
same,ADG (average daily gain),"[8]; d 0-4, P=0.363 vs placebo",139 g/day
same,ADG (average daily gain),"[8]; d 0-22, P=0.297 vs placebo",185 g/day
same,Body weight,"[8]; d 4, P=0.369 vs placebo",2087 g
same,ADFI milk (average daily feed intake),"[8]; d 4-14, P=0.555 vs placebo",149 g DM/d
same,FCR (milk),"[8]; d 4-14, P=0.835 vs placebo",1.03 g milk DM/g
same,ADG (average daily gain),"[8]; d 4-14, P=0.950 vs placebo",150 g/day
same,ADG (average daily gain),"[8]; d 4-22, P=0.253 vs placebo",196 g/day
same,FCR (milk),"[8]; d 4-22, P=0.268 vs placebo",1.04 g milk DM/g
same,ADFI milk (average daily feed intake),"[8]; d 4-22, P=0.834 vs placebo",202 g DM/d
same,Body weight,"[8]; d 14, P=0.946 vs placebo",3524 g
same,FCR (milk + creep feed),"[8]; d 14-22, P=0.038 vs placebo",1.18 (g milk DM + g creep feed DM)/
same,FCR (milk),"[8]; d 14-22, P=0.055 vs placebo",1.09 g milk DM/g
same,ADG (average daily gain),"[8]; d 14-22, P=0.134 vs placebo",250 g/day
same,ADFI creep feed (average daily feed intake),"[8]; d 14-22, P=0.304 vs placebo",23.8 g DM/d
same,ADFI milk (average daily feed intake),"[8]; d 14-22, P=0.885 vs placebo",270 g DM/d
same,Body weight,"[8]; d 22, P=0.306 vs placebo",5524 g
same,FCR versus placebo,"[8]; day 14 to 22, milk and creep feed (P=0.038)",even lower
same,FCR versus placebo,"[8]; day 14 to 22, milk intake (P=0.055)",lower
